From US7605154B2, “Substituted Thiazolo [4,5-d]pyrimidines as protein kinase inhibitors” (Janssen Pharmaceutica N.V., priority 2005, dated 2009) come the findings set out here.

Each structure is given as a SMILES string.

T1 sequence (P00533 667-1210 limits assumed): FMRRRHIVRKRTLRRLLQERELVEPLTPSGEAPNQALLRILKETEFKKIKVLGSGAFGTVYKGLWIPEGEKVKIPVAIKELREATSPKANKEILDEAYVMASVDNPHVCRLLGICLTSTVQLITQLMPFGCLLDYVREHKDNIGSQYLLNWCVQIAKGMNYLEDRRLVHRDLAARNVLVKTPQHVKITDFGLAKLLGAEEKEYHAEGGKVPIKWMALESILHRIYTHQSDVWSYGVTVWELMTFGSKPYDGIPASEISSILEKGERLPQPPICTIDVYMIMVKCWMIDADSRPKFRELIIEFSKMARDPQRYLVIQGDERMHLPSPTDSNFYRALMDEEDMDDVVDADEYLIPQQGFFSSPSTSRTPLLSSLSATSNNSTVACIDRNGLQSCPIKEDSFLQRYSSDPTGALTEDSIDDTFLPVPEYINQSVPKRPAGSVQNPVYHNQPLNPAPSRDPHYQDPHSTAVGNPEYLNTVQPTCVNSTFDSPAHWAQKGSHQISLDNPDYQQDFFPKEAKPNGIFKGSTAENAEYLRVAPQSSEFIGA

This experiment has as its target T1, EGFR (Homo sapiens, UniProt P00533).
T1 construct: started at nucleotide 2189 (corresponding to amino acid 667) and ended at the termination codon; made in house; host or cells: Sf9 insect cells (baculovirus)
As to the kind of experiment: EGFR Kinase Assay. In kind it is biochemical. The settings on record: GST-EGFR, 5 μM ATP. From the text:
The portion was PCR amplified with primers that added the lambda attB sequences to each end, recombined into an entry vector, then into a, GST destination vector (as described in Gateway Technologies Manual by Invitrogen Corporation, Carlsbad, Calif.).
The destination vector was recombined in the DH10BAC strain of bacteria to produce a bacmid. The bacmid was transfected into Sf 9 cells and the supernatant containing the baculovirus was collected. The GSTEGFR protein was purified using large cultures of Sf 9 cells infected with stock virus. After an appropriate period of time, the cells were collected and lysed. The GSTEGFR was then purified from the lysate on Glutathione-Sepharose columns (as described by Amersham Biosciences, Buckinghamshire, United Kingdom).
The free biotin was separated from the biotinylated polyGluTyr on a gel filtration column.
A mixture of a 10× kinase buffer (500 mM Tris at pH 8.0, 100 mM Magnesium Chloride and 1 mM Sodium Vanadate), DTT (1 mM final from 500 mM stock), ATP (5 μM final from 10 mM stock), biotinylated polyGluTyr (10 μg/μL stock), γ-^33P ATP (10 μCi/μL stock) and water was added to each well (90 μL/well) of a Streptavidin Flashplate (Perkin Elmer, Wellesley, Mass.).
Test compound in 100% DMSO (2 μL) was added to the appropriate wells. Diluted GSTEGFR (1:300 dilution in 50 mM Tris at pH 8.0 and 0.1% bovine serum albumin) (10 μL) was added to the wells to initiate the reactions.
The plates were incubated at 30° C. for 1 hr with shaking. The reacted contents were removed and the plates were sequentially washed three times with a 1×PBS stop buffer (300 μL without Magnesium and Calcium) and 100 mM EDTA. After the final wash, the same stop buffer (200 μL) was added to the wells. The plates were then sealed and read on the TopCount scintillation counter.
Test compounds were assayed in triplicate at 16 concentrations at half-log dilutions starting at 200 uM. A maximum and minimum signal for the assay was determined on each plate. The percent inhibition of a test compound was calculated according to the formula
For a series of test concentrations, the IC50 was derived by graphing percent inhibition against the log of the concentrations tested for a given compound.
On to `O=S(=O)(NCCCN1CCOCC1)c1ccc(Nc2nc3ncnc(Nc4ccc(F)c(Cl)c4)c3s2)cc1` [Cpd 41, 4-[7-(3-chloro-4-fluoro-phenylamino)-thiazolo[4,5-d]pyrimidin-2-ylamino]-N-(3-morpholin-4-yl-propyl)-benzenesulfonamide], for which 10 nM corresponded to half-maximal inhibition (IC50). In other words, the double-digit nanomolar range.

Molecule `C#Cc1cccc(Nc2ncnc3nc(Nc4ccc(CN5CCCC5)cc4)sc23)c1` [Cpd 42, N^7-(3-ethynyl-phenyl)-N^2-(4-pyrrolidin-1-ylmethyl-phenyl)-thiazolo[4,5-d]pyrimidine-2,7-diamine] showed an IC50 of 5.42 nM.

`C#Cc1cccc(Nc2ncnc3nc(Nc4ccc(CN5CCCCC5)cc4)sc23)c1` [Cpd 43, N^7-(3-ethynyl-phenyl)-N^2-(4-piperidin-1-ylmethyl-phenyl)-thiazolo[4,5-d]pyrimidine-2,7-diamine] showed an IC50 of 7.8 nM.

For `C#Cc1cccc(Nc2ncnc3nc(Nc4ccc(CN5CCC[C@H]5CO)cc4)sc23)c1` [Cpd 44, (2S)-(1-{4-[7-(3-ethynyl-phenylamino)-thiazolo[4,5-d]pyrimidin-2-ylamino]-benzyl}-pyrrolidin-2-yl)-methanol], inhibition was half-maximal at 10 nM (IC50).

Molecule `C#Cc1cccc(Nc2ncnc3nc(Nc4ccc(S(=O)(=O)N5CCOCC5)cc4)sc23)c1` [Cpd 45, N^7-(3-ethynyl-phenyl)-N^2-[4-(morpholine-4-sulfonyl)-phenyl]-thiazolo[4,5-d]pyrimidine-2,7-diamine] showed an IC50 of 22.5 nM.

Consider `O=S(=O)(c1ccc(Nc2nc3ncnc(Nc4ccc(F)c(Cl)c4)c3s2)cc1)N1CCOCC1` [Cpd 46, N^7-(3-chloro-4-fluoro-phenyl)-N^2-[4-(morpholine-4-sulfonyl)-phenyl]-thiazolo[4,5-d]pyrimidine-2,7-diamine], for which inhibition was half-maximal at 15.5 nM (IC50).

The molecule `C#Cc1cccc(Nc2ncnc3nc(Nc4ccc(CN5CCN(C)CC5)cc4)sc23)c1` [Cpd 47, N^7-(3-ethynyl-phenyl)-N^2-[4-(4-methyl-piperazin-1-ylmethyl)-phenyl]-thiazolo[4,5-d]pyrimidine-2,7-diamine] came in with an IC50 of 18.2 nM.

As to `C#Cc1cccc(Nc2ncnc3nc(Nc4ccc(Cn5ccnc5CC)cc4)sc23)c1` [Cpd 48, N^2-[4-(2-ethyl-imidazol-1-ylmethyl)-phenyl]-N^7-(3-ethynyl-phenyl)-thiazolo[4,5-d]pyrimidine-2,7-diamine], half-maximal inhibition (IC50) required 9 nM. Compared with the last molecule, the IC50 is about 2-fold lower.

Regarding `C#Cc1cccc(Nc2ncnc3nc(Nc4ccc(CN(C)C)cc4)sc23)c1` [Cpd 49, N^2-(4-dimethylaminomethyl-phenyl)-N^7-(3-ethynyl-phenyl)-thiazolo[4,5-d]pyriridine-2,7-diamine], the midpoint of inhibition, the IC50, lay at 11.8 nM.

Take `C#Cc1cccc(Nc2ncnc3nc(Nc4ccc(CCN5CCOCC5)cc4)sc23)c1` [Cpd 50, N^7-(3-ethynyl-phenyl)-N^2-[4-(2-morpholin-4-yl-ethyl)-phenyl]-thiazolo[4,5-d]pyrimidine-2,7-diamine]: half-maximal inhibition (IC50) required 13 nM. This IC50 and that of the molecule before are within 1.5-fold of each other.

Molecule `Fc1ccc(Nc2ncnc3nc(NCCN4CCOCC4)sc23)cc1Cl` [Cpd 51, N^7-(3-chloro-4-fluoro-phenyl)-N^2-(2-morpholin-4-yl-ethyl)-thiazolo[4,5-d]pyrimidine-2,7-diamine] came in with an IC50 of 918 nM.

For `Fc1ccc(Nc2ncnc3nc(NCCCN4CCOCC4)sc23)cc1Cl` [Cpd 52, N^7-(3-chloro-4-fluoro-phenyl)-N^2-(3-morpholin-4-yl-propyl)-thiazolo[4,5-d]pyrimidine-2,7-diamine], the half-inhibitory concentration (IC50) was 698 nM. The IC50 values of the last two molecules are within 1.5-fold of each other.

For the molecule `CC(C)OCCNCc1ccc(Nc2nc3ncnc(Nc4ccc(F)c(Cl)c4)c3s2)cc1` [Cpd 53, N^7-(3-chloro-4-fluoro-phenyl)-N^2-{-4-[(2-isopropoxy-ethylamino)-methyl]-phenyl}-thiazolo[4,5-d]pyrimidine-2,7-diamine], the IC50 came to 7.73 nM.

Consider `C#Cc1cccc(Nc2ncnc3nc(Nc4ccc(CN5CCC[C@@H]5CO)cc4)sc23)c1` [Cpd 54, (2R)-(1-{4-[7-(3-ethynyl-phenylamino)-thiazolo[4,5-d]pyrimidin-2-ylamino]-benzyl}-pyrrolidin-2-yl)-methanol], for which half-maximal inhibition (IC50) was put at 10 nM.

Consider `C#Cc1cccc(Nc2ncnc3nc(Nc4ccc(CNCCOC(C)C)cc4)sc23)c1` [Cpd 55, N^7-(3-ethynyl-phenyl)-N^2-{4-[(2-isopropoxy-ethylamino)-methyl]-phenyl}-thiazolo[4,5-d]pyrimidine-2,7-diamine], for which the 50% inhibitory concentration (IC50) was 8.25 nM.

`COc1ccc(Cl)cc1Nc1ncnc2nc(Nc3ccc(CN4CCOCC4)cc3)sc12` [Cpd 56, N^7-(5-chloro-2-methoxy-phenyl)-N^2-(4-morpholin-4-ylmethyl-phenyl)-thiazolo[4,5-d]pyrimidine-2,7-diamine] yielded an IC50 of 36 nM.

For `Clc1cccc(Nc2ncnc3nc(Nc4ccc(CN5CCOCC5)cc4)sc23)c1` [Cpd 57, N^7-(3-chloro-phenyl)-N^2-(4-morpholin-4-ylmethyl-phenyl)-thiazolo[4,5-d]pyrimidine-2,7-diamine], the IC50 was 7 nM.

Turning to `C#Cc1cccc(Nc2ncnc3nc(Nc4ccc(S(=O)(=O)NCCO)cc4)sc23)c1` [Cpd 58, 4-[7-(3-ethynyl-phenylamino)-thiazolo[4,5-d]pyrimidin-2-ylamino]-N-(2-hydroxy-ethyl)-benzenesulfonamide], the 50% inhibitory concentration (IC50) stood at 6.5 nM.

Consider `CN(Cc1ccc(Nc2nc3ncnc(Nc4ccc(F)c(Cl)c4)c3s2)cc1)C[C@H]1CCCO1` [Cpd 59, N^7-(3-chloro-4-fluoro-phenyl)-N^2-(4-{[methyl-(2R)-(tetrahydro-furan-2-ylmethyl)-amino]-methyl}-phenyl)-thiazolo[4,5-d]pyrimidine-2,7-diamine], for which the half-maximal inhibitory concentration (IC50) turned out to be 11 nM. Against the preceding molecule, the IC50 is about 1.7-fold higher.

As to `CN(Cc1ccc(Nc2nc3ncnc(Nc4ccc(F)c(Cl)c4)c3s2)cc1)C[C@@H]1CCCO1` [Cpd 60, N^7-(3-chloro-4-fluoro-phenyl)-N^2-(4-{[methyl-(2S)-(tetrahydro-furan-2-ylmethyl)-amino]-methyl}-phenyl)-thiazolo[4,5-d]pyrimidine-2,7-diamine], the half-maximal inhibitory concentration (IC50) stood at 23.9 nM. Compared with the last molecule, the IC50 is about 2.2-fold higher.

`C#Cc1cccc(Nc2ncnc3nc(Nc4ccc(CN(CC(C)O)CC(C)O)cc4)sc23)c1` (stereo not drawn) [Cpd 61, 1-[{4-[7-(3-ethynyl-phenylamino)-thiazolo[4,5-d]pyrimidin-2-ylamino]-benzyl}-(2-hydroxy-propyl)-amino]-propan-2-ol] returned an IC50 of 27.5 nM.

As for `C#Cc1cccc(Nc2ncnc3nc(Nc4ccc(CNCC5COC(C)(C)O5)cc4)sc23)c1` (stereo not drawn) [Cpd 62, N^2-(4-{[(2,2-dimethyl-[1,3]dioxolan-4-ylmethyl)-amino]-methyl}-phenyl)-N^7-(3-ethynyl-phenyl)-thiazolo[4,5-d]pyrimidine-2,7-diamine], it took 6.95 nM to reach half-maximal inhibition (IC50).

`C#Cc1cccc(Nc2ncnc3nc(Nc4ccc(CN(C)C5CCOCC5)cc4)sc23)c1` [Cpd 63]: the concentration for half-maximal inhibition (IC50) is 10.7 nM.

With `O=[N+]([O-])c1cc(Nc2ncnc3nc(Nc4ccc(CN5CCOCC5)cc4)sc23)ccc1F` [Cpd 65, N^7-(4-fluoro-3-nitro-phenyl)-N^2-(4-morpholin-4-ylmethyl-phenyl)-thiazolo[4,5-d]pyrimidine-2,7-diamine], half-maximal inhibition (IC50) was put at 43.4 nM.

Take `Fc1ccc(Nc2ncnc3nc(Nc4ccc(CNC[C@H]5CCCO5)cc4)sc23)cc1Cl` [Cpd 67, N^7-(3-chloro-4-fluoro-phenyl)-N^2-(4-{[(2R)-(tetrahydro-furan-2-ylmethyl)-amino]-methyl}-phenyl)-thiazolo[4,5-d]pyrimidine-2,7-diamine]: the half-maximal inhibitory concentration (IC50) was found to be 3.7 nM.

Turning to `C#Cc1cccc(Nc2ncnc3nc(Nc4ccc(OC)nc4)sc23)c1` [Cpd 69, N^7-(3-ethynyl-phenyl)-N^2-(6-methoxy-pyridin-3-yl)-thiazolo[4,5-d]pyrinidine-2,7-diamine], half-maximal inhibition (IC50) required 28.6 nM.

Take `COc1ccc(Nc2nc3ncnc(Nc4ccc(F)c(Cl)c4)c3s2)cn1` [Cpd 70, N^7-(3-chloro-4-fluoro-phenyl)-N^2-(6-methoxy-pyridin-3-yl)-thiazolo[4,5-d]pyrimidine-2,7-diamnine]: 19.6 nM corresponded to half-maximal inhibition (IC50).

`Nc1ccc(Nc2nc3ncnc(Nc4ccc(F)c(Cl)c4)c3s2)cn1` [Cpd 71, N^2-(6-amino-pyridin-3-yl)-N^7-(3-chloro-4-fluoro-phenyl)-thiazolo[4,5-d]pyrimidine-2,7-diamine] returned a concentration for half-maximal inhibition (IC50) of 44 nM. Against the preceding molecule, the IC50 is about 2.2-fold higher.

`C#Cc1cccc(Nc2ncnc3nc(Nc4ccc(NCCCN5CCOCC5)nc4)sc23)c1` [Cpd 72, N^7-(3-ethynyl-phenyl)-N^2-[6-(3-morpholin-4-yl-propylamino)-pyridin-3-yl]-thiazolo[4,5-d]pyrimidine-2,7-diamine] showed a half-inhibitory concentration (IC50) of 28.2 nM. Compared with the last molecule, the IC50 is about 1.6-fold lower.

Turning to `NS(=O)(=O)c1ccc(Nc2nc3ncnc(Nc4cccc(Cl)c4)c3s2)cc1` [Cpd 74, 4-[7-(3-chloro-phenylamino)-thiazolo[4,5-d]pyrimidin-2-ylamno]-benzenesulfonamide], the half-maximal inhibitory concentration (IC50) is 6.6 nM.

A word on the IC50: it is the point on the concentration scale where inhibition reaches its midpoint. A lower IC50 goes with inhibition by little substance.
